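Grown in 96-well plates, cells were treated for 48 hours with each compound at five concentrations. Insufficient inhibition: endpoint recorded as highest concentration tested. GI50: concentration for 50% inhibition of growth. Definition used: TGI = concentration required for complete inhibition of growth.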
Key:
Assay in all cases: NCI anticancer screen, dose series, 48 h
CCRF-CEM leukemia = system: CCRF-CEM leukemia
HCT-116 colon = system: HCT-116 colon
K-562 leukemia = system: K-562 leukemia
MALME-3M melanoma = system: MALME-3M melanoma
MOLT-4 leukemia = system: MOLT-4 leukemia
NCI/ADR-RES ovarian = system: NCI/ADR-RES ovarian
PC-3 prostate = system: PC-3 prostate
RXF 393 renal = system: RXF 393 renal
UACC-62 melanoma = system: UACC-62 melanoma
UO-31 renal = system: UO-31 renal

CC(C)(C)c1ccc(O)c(Br)c1
TGI (CCRF-CEM leukemia): > 100 µM | TGI (HCT-116 colon): > 100 µM | TGI (K-562 leukemia): > 100 µM | TGI (MALME-3M melanoma): > 100 µM | TGI (MOLT-4 leukemia): > 100 µM | TGI (NCI/ADR-RES ovarian): > 100 µM | TGI (PC-3 prostate): > 100 µM | TGI (RXF 393 renal): > 100 µM | TGI (UACC-62 melanoma): > 100 µM | TGI (UO-31 renal): > 100 µM

CC(C)(C)OC(=O)N1C(C2=COc3ccccc3O2)=COc2cccnc21
TGI (HCT-116 colon): 4.98 µM | TGI (K-562 leukemia): 5.33 µM | TGI (MALME-3M melanoma): 2.76 µM | TGI (MOLT-4 leukemia): 7 µM | TGI (NCI/ADR-RES ovarian): 4.7 µM | TGI (PC-3 prostate): 6.04 µM | TGI (RXF 393 renal): 3.06 µM | TGI (UACC-62 melanoma): 3.17 µM | TGI (UO-31 renal): 3.1 µM

CC(Br)C(=O)c1ccc2cc(Br)c3ccccc3c2c1 (stereo not drawn)
TGI (CCRF-CEM leukemia): 14.6 µM | TGI (HCT-116 colon): 29.9 µM | TGI (K-562 leukemia): 42.9 µM | TGI (MALME-3M melanoma): 28.8 µM | TGI (NCI/ADR-RES ovarian): 35 µM | TGI (RXF 393 renal): 30.2 µM | TGI (UACC-62 melanoma): 28.7 µM | TGI (UO-31 renal): 32 µM

Cc1cc(O)c2c(c1O)C(=O)c1c(O)ccc(O)c1C2=O
TGI (CCRF-CEM leukemia): > 100 µM | TGI (HCT-116 colon): > 100 µM | TGI (K-562 leukemia): > 100 µM | TGI (MALME-3M melanoma): > 100 µM | TGI (MOLT-4 leukemia): > 100 µM | TGI (NCI/ADR-RES ovarian): > 100 µM | TGI (PC-3 prostate): > 100 µM | TGI (RXF 393 renal): > 100 µM | TGI (UACC-62 melanoma): > 100 µM

O=P(O)(O)OP(=O)(O)O
TGI (CCRF-CEM leukemia): > 100 µM | TGI (HCT-116 colon): > 100 µM | TGI (K-562 leukemia): > 100 µM | TGI (MALME-3M melanoma): > 100 µM | TGI (MOLT-4 leukemia): > 100 µM | TGI (NCI/ADR-RES ovarian): > 100 µM | TGI (PC-3 prostate): > 100 µM | TGI (RXF 393 renal): > 100 µM | TGI (UACC-62 melanoma): > 100 µM | TGI (UO-31 renal): > 100 µM

COc1cccc(/C=N/[N-]C(N)=O)c1[O-].[Cu+2].[OH3+].c1cnc2c(c1)ccc1cccnc12
TGI (CCRF-CEM leukemia): 66.2 µM | TGI (HCT-116 colon): 27.8 µM | TGI (K-562 leukemia): 39.3 µM | TGI (MALME-3M melanoma): 33.3 µM | TGI (MOLT-4 leukemia): > 100 µM | TGI (UACC-62 melanoma): 22.3 µM | TGI (UO-31 renal): 38.2 µM

O=S1c2ccccc2N=C(c2ccc3ccccc3c2)CC1c1ccccc1 (stereo not drawn)
TGI (CCRF-CEM leukemia): 81.2 µM | TGI (HCT-116 colon): 33.6 µM | TGI (K-562 leukemia): 62.1 µM | TGI (MOLT-4 leukemia): > 100 µM | TGI (UACC-62 melanoma): > 100 µM | TGI (UO-31 renal): 32.4 µM

O=c1oc2c(ccc3occc32)c(N2CCCCC2)c1-c1ccccc1
TGI (CCRF-CEM leukemia): > 59.5 µM | TGI (HCT-116 colon): > 100 µM | TGI (K-562 leukemia): > 100 µM | TGI (MALME-3M melanoma): > 100 µM | TGI (MOLT-4 leukemia): > 31.7 µM | TGI (NCI/ADR-RES ovarian): > 100 µM | TGI (RXF 393 renal): > 100 µM | TGI (UACC-62 melanoma): > 100 µM | TGI (UO-31 renal): > 30.3 µM

C[C@H](Nc1ccc(C#N)n(C)c1=O)c1cc2cc(Cl)ccc2[nH]c1=O
GI50 (CCRF-CEM leukemia): 24.5 µM | TGI (CCRF-CEM leukemia): > 100 µM | GI50 (HCT-116 colon): 23.9 µM | TGI (HCT-116 colon): > 100 µM | GI50 (K-562 leukemia): 27.1 µM | TGI (K-562 leukemia): > 100 µM | GI50 (MALME-3M melanoma): 25.3 µM | TGI (MALME-3M melanoma): > 100 µM | GI50 (MOLT-4 leukemia): 18.6 µM | TGI (MOLT-4 leukemia): 64.1 µM | GI50 (NCI/ADR-RES ovarian): 26.1 µM | TGI (NCI/ADR-RES ovarian): > 100 µM | GI50 (PC-3 prostate): 13.3 µM | TGI (PC-3 prostate): 83.5 µM | GI50 (RXF 393 renal): 13.3 µM | TGI (RXF 393 renal): 67.7 µM | GI50 (UACC-62 melanoma): 20.1 µM | TGI (UACC-62 melanoma): 77.6 µM | GI50 (UO-31 renal): 17.6 µM | TGI (UO-31 renal): > 100 µM

Cc1cc(N2CCOCC2)nc(N(CCCNc2ccnc3cc(Cl)ccc23)Cc2ccc3c(c2)OCO3)n1
GI50 (CCRF-CEM leukemia): 0.355 µM | TGI (CCRF-CEM leukemia): 2.1 µM | GI50 (HCT-116 colon): 0.464 µM | TGI (HCT-116 colon): 1.63 µM | GI50 (K-562 leukemia): 0.436 µM | TGI (K-562 leukemia): 2.42 µM | GI50 (MOLT-4 leukemia): 0.598 µM | TGI (MOLT-4 leukemia): 2.97 µM | GI50 (PC-3 prostate): 1.62 µM | TGI (PC-3 prostate): 3.24 µM

Source: PubChem BioAssay (NCI)
